According to US20190298718A1, “DOSING REGIMEN” (Cyclacel Limited, priority 2017, published 2019):
Like-named read-outs stand apart in the source and are kept apart here.

How the values were obtained:
[1] = phase I, patients with a variety of cancers; cited from earlier work
[2] = test system: colon cancer; settings: model of colon cancer; cited from earlier work
[3] = test system: AML cell lines; test: Combination of CNDAC with hypomethylating agents in AML cell lines; assay type: cell-based; settings: more apparent if cells are treated with hypomethylating agents first
Description: Previous studies by the applicant have shown that in AML cell lines, the active metabolite of sapacitabine, CNDAC, is synergistic with hypomethylating agents and the synergy is more apparent if cells are treated with hypomethylating agents first. The present invention relates to the identification of new and previously undefined subgroups of AML patients for which treatment with an alternating regimen of sapacitabine and decitabine is particularly effective.

[4] = test system: acute myeloid leukemia (AML); assay type: in vivo, human
Description: WBC count can be determined, by any suitable institutional standard protocol. By way of example, suitable methods are described in Blumenreich [Reference 12] or Shafer [Reference 13], the contents of which are incorporated by reference.
SWOG classification was determined according to the criteria set out in Table 6 (Slovak et al, Reference 1; the contents of which are incorporated by reference). Cytogenetic testing can be carried out on peripheral blood, for example, in accordance with the standard methodology set forth in Slovak et al [Reference 1] or on bone marrow. Karyotyping or routine cytogenetic analysis involves the examination of chromosomes to identify structural abnormalities. Conventional cytogenetics (karyotyping) is the standard cytogenetic analysis for identifying gross chromosomal abnormalities: aneuploidies & structural (gain/loss, rearrangement). Chromosomes of a dividing human cell can be analysed clearly in white blood cells, specifically T lymphocytes, which are easily collected from blood. Cells from other tissues such as bone marrow, amniotic fluid, and other tissues can also be cultured for cytogenetic analysis. Cells from bone marrow are cultured for several days. Chromosomes in the growing and dividing cells are then fixed, spread on microscope slides, and stained to allow each of the chromosomes to be individually identified. Cytogenetic study was performed using the standard G-banding method (Reference 22, the contents of which are incorporated by reference). […] Findings based on the FISH technique were used as considered supportive information (FISH analysis is based on probes directed to specific chromosomal regions (molecular cytogenetics)) (Reference 22).

[5] = test system: cell line that is resistant to cytarabine; settings: cited from earlier work
[6] = Antecedent MDS/MPN No and WBC ≥10,000
[7] = Antecedent MDS/MPN Yes and WBC <10,000
[8] = SWOG Not unfavourable and WBC <10,000
[9] = SWOG Unfavourable and WBC ≥10,000

CCCCCCCCCCCCCCCC(=O)Nc1ccn([C@@H]2O[C@H](CO)[C@@H](O)[C@@H]2C#N)c(=O)n1 [(I), 1-(2-C-cyano-2-deoxy-β-D-arabino-pentofuranosyl)-N^4-palmitoyl cytosine]
dose-limiting toxicity [1]: myelosuppression | tolerability [1]: well tolerated | anticancer activity [2]: strong | increasing survival and preventing the spread of colon cancer metastases to the liver, compared with gemcitabine or 5-FU [2]: superior

N#C[C@H]1[C@H](O)[C@@H](CO)O[C@H]1n1ccc(N)nc1=O [CNDAC, 2′-C-cyano-2′-deoxy-1-β-D-arabino-pentofuranosyl cytosine]
interaction with hypomethylating agents [3]: synergistic

Nc1ncn([C@H]2C[C@H](O)[C@@H](CO)O2)c(=O)n1 [Decitabine, 4-amino-1-(2-deoxy-β-D-erythro-pentofuranosyl)-1,3,5-triazin-2(1H)-one]
1-year survival (%) [4, 6]: 36.7% | Median overall survival months [4, 6]: 5.5 months | 1-year survival (%) [4, 7]: 27.5% | CR rate (%) [4, 7]: 2.5% | Median overall survival months [4, 7]: 4.9 months | 1-year survival (%) ([4]; Antecedent MDS/MPN: No): 35.5% | Median overall survival months ([4]; Antecedent MDS/MPN: No): 6.7 months | 1-year survival (%) ([4]; Antecedent MDS/MPN: Yes): 32.9% | CR median duration, months ([4]; Antecedent MDS/MPN: Yes): 7.1 months | CR rate (%) ([4]; Antecedent MDS/MPN: Yes): 5.7% | Median overall survival months ([4]; Antecedent MDS/MPN: Yes): 5.0 months | 1-year survival (%) [4, 8]: 31.8% | CR rate (%) [4, 8]: 5.7% | Median overall survival months [4, 8]: 5.6 months | 1-year survival (%) [4, 9]: 30.0% | CR rate (%) [4, 9]: 0% | Median overall survival months [4, 9]: 3.0 months | 1-year survival (%) ([4]; SWOG category Not Unfavourable): 35.9% | Median overall survival months ([4]; SWOG category Not Unfavourable): 5.7 months | 1-year survival (%) ([4]; SWOG category Unfavourable): 33.0% | CR rate (%) ([4]; SWOG category Unfavourable): 9.6% | Median overall survival months ([4]; SWOG category Unfavourable): 5.7 months | Median overall survival ([4]; all randomized patients (n=241 per arm)): 5.7 months | Patients aged 80 and over, median overall survival, months ([4]; patients aged 80 and over with <10,000 WBC): 4.2 months | 1-year survival (%) ([4]; patients with <10,000 WBC): 32.9% | CR rate (%) ([4]; patients with <10,000 WBC): 8.6% | Median overall survival months ([4]; patients with <10,000 WBC): 5.8 months | 1-year survival (%) ([4]; patients with ≥10,000 WBC): 38.5% | Median overall survival months ([4]; patients with ≥10,000 WBC): 5.5 months

Nc1ccn([C@@H]2O[C@H](CO)[C@@H](O)[C@@H]2O)c(=O)n1 [cytarabine]
IC50 ([5]; after 5-azacitidine (upregulation of dCK)): 0.55 µM | IC50 ([5]; before 5-azacitidine): 12.5 µM
